Data published in the supplement of paper PMC5662764.
± gives the standard deviation of the averaged measurements.

Columns and labels:
Assay in all cases: normalised growth rate inhibition (GR value) relative to DMSO control (GR (1 = untreated growth, 0 = cytostasis, <0 = cytotoxic)); higher = less growth inhibition
Conditions in all cases: 72 h
BT20 = test system: BT20
Protocol: (§1)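 Breast cancer cell lines (BT-20, Hs 578T, MCF 10A, MCF7, MDA-MB-231, SK-BR-3) were plated in 384-well plates and treated 24 h later with drugs at six concentrations (0.04-10 µM). Viable cells were counted by Hoechst/dead-cell-stain imaging at 0 and 72 h. Counts were normalised to DMSO controls on the same plate to give the relative cell count and the growth-rate inhibition (GR) value; technical plate triplicates were averaged for each biological replicate.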

HS578T = test system: HS578T
Protocol: as §1

MCF10A = test system: MCF10A
Protocol: as §1

MCF7 = test system: MCF7
Protocol: as §1

MDAMB231 = test system: MDAMB231
Protocol: as §1

SKBR3 = test system: SKBR3
Protocol: as §1

Structure (SMILES) | normalised growth rate inhibition (BT20; 0.04 µM) | normalised growth rate inhibition (BT20; 0.12 µM) | normalised growth rate inhibition (BT20; 0.37 µM) | normalised growth rate inhibition (BT20; 1.11 µM) | normalised growth rate inhibition (BT20; 3.33 µM) | normalised growth rate inhibition (BT20; 10 µM) | normalised growth rate inhibition (HS578T; 0.04 µM) | normalised growth rate inhibition (HS578T; 0.12 µM) | normalised growth rate inhibition (HS578T; 0.37 µM) | normalised growth rate inhibition (HS578T; 1.11 µM) | normalised growth rate inhibition (HS578T; 3.33 µM) | normalised growth rate inhibition (HS578T; 10 µM) | normalised growth rate inhibition (MCF10A; 0.04 µM) | normalised growth rate inhibition (MCF10A; 0.12 µM) | normalised growth rate inhibition (MCF10A; 0.37 µM) | normalised growth rate inhibition (MCF10A; 1.11 µM) | normalised growth rate inhibition (MCF10A; 3.33 µM) | normalised growth rate inhibition (MCF10A; 10 µM) | normalised growth rate inhibition (MCF7; 0.04 µM) | normalised growth rate inhibition (MCF7; 0.12 µM) | normalised growth rate inhibition (MCF7; 0.37 µM) | normalised growth rate inhibition (MCF7; 1.11 µM) | normalised growth rate inhibition (MCF7; 3.33 µM) | normalised growth rate inhibition (MCF7; 10 µM) | normalised growth rate inhibition (MDAMB231; 0.04 µM) | normalised growth rate inhibition (MDAMB231; 0.12 µM) | normalised growth rate inhibition (MDAMB231; 0.37 µM) | normalised growth rate inhibition (MDAMB231; 1.11 µM) | normalised growth rate inhibition (MDAMB231; 3.33 µM) | normalised growth rate inhibition (MDAMB231; 10 µM) | normalised growth rate inhibition (SKBR3; 0.04 µM) | normalised growth rate inhibition (SKBR3; 0.12 µM) | normalised growth rate inhibition (SKBR3; 0.37 µM) | normalised growth rate inhibition (SKBR3; 1.11 µM) | normalised growth rate inhibition (SKBR3; 3.33 µM) | normalised growth rate inhibition (SKBR3; 10 µM)
Cn1c(=O)n(-c2ccc(C(C)(C)C#N)cc2)c2c3cc(-c4cnc5ccccc5c4)ccc3ncc21 [NVP-BEZ235] | 0.254 ± 0.1 | 0.13 ± 0.12 | 0.0662 ± 0.092 | 0.061 ± 0.042 | 0.055 ± 0.039 | 0.103 ± 0.053 | 0.261 ± 0.067 | 0.197 ± 0.078 | 0.109 ± 0.087 | 0.132 ± 0.11 | 0.115 ± 0.052 | 0.128 ± 0.044 | 0.393 ± 0.24 | 0.269 ± 0.12 | 0.171 ± 0.038 | 0.164 ± 0.048 | 0.168 ± 0.052 | 0.202 ± 0.03 | 0.166 ± 0.15 | 0.122 ± 0.16 | 0.0651 ± 0.16 | 0.0257 ± 0.12 | 0.034 ± 0.1 | 0.068 ± 0.071 | 0.397 ± 0.2 | 0.301 ± 0.19 | 0.196 ± 0.2 | 0.216 ± 0.15 | 0.223 ± 0.11 | 0.266 ± 0.095 | 0.0857 ± 0.065 | 0.0449 ± 0.11 | -0.0406 ± 0.12 | -0.04 ± 0.11 | -0.035 ± 0.12 | 0.0305 ± 0.11
CN(c1ncccc1CNc1nc(Nc2ccc3c(c2)CC(=O)N3)ncc1C(F)(F)F)S(C)(=O)=O | 0.921 ± 0.011 | 0.879 ± 0.031 | 0.815 ± 0.069 | 0.583 ± 0.13 | 0.201 ± 0.15 | -0.212 ± 0.071 | 0.897 ± 0.02 | 0.812 ± 0.035 | 0.735 ± 0.034 | 0.62 ± 0.042 | 0.438 ± 0.048 | -0.0953 ± 0.11 | 0.894 ± 0.02 | 0.814 ± 0.017 | 0.66 ± 0.014 | 0.4 ± 0.098 | 0.0782 ± 0.016 | -0.191 ± 0.2 | 0.8557 ± 0.0043 | 0.759 ± 0.054 | 0.529 ± 0.066 | 0.251 ± 0.094 | -0.0743 ± 0.044 | -0.309 ± 0.069 | 0.897 ± 0.027 | 0.825 ± 0.081 | 0.741 ± 0.075 | 0.577 ± 0.14 | 0.166 ± 0.14 | -0.196 ± 0.22 | 1.05 ± 0.051 | 0.984 ± 0.095 | 0.704 ± 0.099 | 0.198 ± 0.053 | -0.0632 ± 0.084 | -0.254 ± 0.25
COc1cc2ncnc(-n3nc(-c4ccccn4)nc3N)c2cc1OC | 1.07 ± 0.0067 | 1.03 ± 0.032 | 1.01 ± 0.036 | 1.02 ± 0.014 | 0.954 ± 0.047 | 0.588 ± 0.22 | 1.035 ± 0.0072 | 1.04 ± 0.021 | 1.05 ± 0.033 | 1.02 ± 0.053 | 0.978 ± 0.083 | 0.686 ± 0.15 | 1.018 ± 0.01 | 1.01 ± 0.014 | 1.008 ± 0.0099 | 0.994 ± 0.011 | 0.972 ± 0.018 | 0.729 ± 0.26 | 1.09 ± 0.051 | 1.04 ± 0.045 | 1.05 ± 0.083 | 1.01 ± 0.1 | 0.918 ± 0.14 | 0.499 ± 0.41 | 1.05 ± 0.057 | 1.02 ± 0.058 | 0.785 ± 0.4 | 0.938 ± 0.041 | 0.903 ± 0.1 | 0.534 ± 0.25 | 1.16 ± 0.032 | 1.05 ± 0.033 | 1.04 ± 0.069 | 0.95 ± 0.13 | 0.871 ± 0.17 | 0.479 ± 0.44
CCCS(=O)(=O)Nc1ccc(F)c(C(=O)c2c[nH]c3ncc(Cl)cc23)c1F [PLX-4720] | 1.01 ± 0.032 | 0.988 ± 0.027 | 0.959 ± 0.051 | 0.882 ± 0.16 | 0.685 ± 0.1 | 0.409 ± 0.05 | 1.03 ± 0.033 | 1.09 ± 0.044 | 1.12 ± 0.079 | 1.12 ± 0.11 | 1.04 ± 0.086 | 0.781 ± 0.092 | 0.998 ± 0.019 | 0.99 ± 0.039 | 0.982 ± 0.054 | 1 ± 0.068 | 1 ± 0.066 | 0.896 ± 0.056 | 1.04 ± 0.078 | 0.944 ± 0.028 | 1.02 ± 0.049 | 0.991 ± 0.02 | 0.851 ± 0.097 | 0.5 ± 0.16 | 0.989 ± 0.06 | 1.01 ± 0.054 | 1 ± 0.032 | 0.929 ± 0.041 | 0.822 ± 0.073 | 0.63 ± 0.21 | 0.994 ± 0.015 | 0.999 ± 0.026 | 1.04 ± 0.15 | 1.06 ± 0.06 | 0.61 ± 0.1 | 0.254 ± 0.26
C=CC(=O)N1CCc2ccc(-n3c(=O)ccc4cnc5ccc(-c6cnn(C)c6)cc5c43)cc21 [QL-XII-47] | 0.669 ± 0.29 | 0.618 ± 0.31 | 0.351 ± 0.28 | 0.0671 ± 0.23 | -0.135 ± 0.077 | -0.259 ± 0.091 | 0.895 ± 0.091 | 0.854 ± 0.11 | 0.713 ± 0.15 | 0.438 ± 0.24 | 0.153 ± 0.14 | -0.127 ± 0.12 | 0.969 ± 0.021 | 0.953 ± 0.024 | 0.867 ± 0.11 | 0.683 ± 0.26 | 0.428 ± 0.32 | -0.127 ± 0.14 | 0.57 ± 0.16 | 0.35 ± 0.25 | 0.0387 ± 0.084 | -0.0941 ± 0.045 | -0.109 ± 0.017 | -0.188 ± 0.12 | 0.659 ± 0.12 | 0.541 ± 0.14 | 0.337 ± 0.15 | 0.109 ± 0.14 | -0.0169 ± 0.082 | -0.128 ± 0.12 | 0.516 ± 0.042 | 0.35 ± 0.12 | 0.0964 ± 0.17 | -0.108 ± 0.14 | -0.26 ± 0.18 | -0.3 ± 0.16
COC(=O)c1ccc2c(C(=Nc3ccc(N(C)C(=O)CN4CCN(C)CC4)cc3)c3ccccc3)c(O)[nH]c2c1 [nintedanib] | 1.03 ± 0.056 | 1.01 ± 0.088 | 0.857 ± 0.14 | 0.843 ± 0.089 | 0.692 ± 0.079 | 0.508 ± 0.12 | 0.922 ± 0.029 | 0.872 ± 0.043 | 0.727 ± 0.053 | 0.585 ± 0.14 | 0.386 ± 0.12 | 0.0955 ± 0.12 | 1.012 ± 0.0058 | 0.9933 ± 0.0087 | 0.9918 ± 0.0074 | 0.99 ± 0.014 | 0.918 ± 0.069 | 0.967 ± 0.029 | 0.999 ± 0.043 | 0.892 ± 0.073 | 0.748 ± 0.12 | 0.545 ± 0.15 | 0.326 ± 0.2 | 0.038 ± 0.22 | 1.08 ± 0.029 | 1.04 ± 0.022 | 0.9908 ± 0.0092 | 0.929 ± 0.067 | 0.842 ± 0.14 | 0.214 ± 0.56 | 1.09 ± 0.024 | 1.02 ± 0.051 | 0.947 ± 0.028 | 0.835 ± 0.022 | 0.645 ± 0.095 | 0.0487 ± 0.37
Cc1cc([C@@H](C)Nc2ccccc2C(=O)O)c2nc(N3CCOCC3)cc(=O)n2c1 [AZD-6482] | 0.974 ± 0.05 | 0.895 ± 0.079 | 0.758 ± 0.059 | 0.52 ± 0.078 | 0.245 ± 0.08 | -0.0918 ± 0.069 | 0.929 ± 0.03 | 0.89 ± 0.023 | 0.855 ± 0.034 | 0.768 ± 0.039 | 0.678 ± 0.092 | 0.337 ± 0.16 | 0.993 ± 0.019 | 0.952 ± 0.056 | 0.938 ± 0.055 | 0.891 ± 0.094 | 0.842 ± 0.14 | 0.36 ± 0.24 | 1.05 ± 0.078 | 0.954 ± 0.065 | 0.988 ± 0.066 | 0.906 ± 0.029 | 0.673 ± 0.078 | 0.0729 ± 0.13 | 0.932 ± 0.013 | 0.888 ± 0.0098 | 0.867 ± 0.023 | 0.752 ± 0.083 | 0.648 ± 0.11 | 0.446 ± 0.21 | 0.988 ± 0.013 | 0.915 ± 0.063 | 1 ± 0.077 | 0.87 ± 0.072 | 0.404 ± 0.078 | -0.107 ± 0.21
